# Reference: patent US9957251B2 (Takeda Pharmaceutical Company Limited, priority 2014, dated 2018)
# Key:
# [1] = tested on: human multiple myeloma RPMI8226 cells; test: Inhibitory activity against human multiple myeloma RPMI8226 cell growth (CellTiter-Glo); assay type: cell-based; conditions: Homo sapiens, RPMI-8226, 192 h, 1 μM of the test compound, cultured for 8 days; read-out: Percent inhibition of RPMI8226 cell growth (%)
# Description: The compound of the present invention was evaluated for its inhibitory activity against human multiple myeloma RPMI8226 cell growth by the following method.
# A suspension of human multiple myeloma RPMI8226 cells (purchased from the Health Protection Agency) was inoculated at 40 μL (300 cells/well) to a 384-well plate and cultured at 37° C. for 1 day in a 5% CO2 incubator. After the culture, each test compound solution was added thereto at a test concentration of 1 μM using TECAN D300, and the cells were further cultured for 8 days. After the culture, CellTiter-Glo™ Luminescent Cell Viability Assay reagent (Promega) was added at 40 μL/well to a 384-well plate, and the amount of luminescence was measured using a luminometer. Inhibitory activity against human multiple myeloma RPMI8226 cell growth (percent inhibition (%)) of the test compound was calculated according to the following formula, which is based on the hypothesis that the amount of residual ATP reflects the number of cells. In this formula, 100% control represents the amount of luminescence from a well with only 0.1% DMSO added. Percent inhibition (%)=(1−(amount of luminescence of the test compound)÷(100% control))×100
# CDK8/CycC = target: T1, CDK8/CycC (Homo sapiens, UniProt P49336); test: CDK8 inhibitory activity (TR-FRET, Kinase Tracer-236 displacement); assay type: binding; conditions: 1 μM of the test compound; read-out: Percent inhibition of CDK8 activity (%)
# T1 construct: purchased Carna Biosciences
# Description: (§1) The compound of the present invention was evaluated for its CDK8 inhibitory activity and CDK19 inhibitory activity by the following method. […] The primary diluted solution was dispensed in the amount of 2 μL/well to a 384-well plate, and then, a mixed solution of Eu^3+ Cryptate conjugated mouse monoclonal antibody anti-glutathione S-transferase (Cisbio) diluted 267-fold with an assay buffer and 60 nM Kinase Tracer-236 (Life technologies) was added thereto at 2 μL/well. After the addition, each kinase solution (84 ng/mL CDK8/CycC (Carna Biosciences) diluted with an assay buffer used for CDK8 inhibitory activity measurement, and 87 ng/mL CDC2L6/CycC (Carna Biosciences) diluted with an assay buffer used for CDK19 inhibitory activity measurement) was further added thereto at 2 μL/well. After the addition, the plate was left standing at room temperature for 1 hour, and then, the fluorescence intensity (excitation wavelength 320 nm, fluorescence wavelength 615 nm, 665 nm, delay time 50 μsec) was measured using an EnVision plate reader (PerkinElmer).
# CDK19 (CDC2L6/CycC) = target: T2, CDK19 (CDC2L6/CycC) (Homo sapiens, UniProt Q9BWU1); test: CDK19 inhibitory activity (TR-FRET, Kinase Tracer-236 displacement); assay type: binding; conditions: 1 μM of the test compound; read-out: Percent inhibition of CDK19 activity (%)
# T2 construct: purchased Carna Biosciences
# Description: as §1
# T1 sequence (P49336 whole entry): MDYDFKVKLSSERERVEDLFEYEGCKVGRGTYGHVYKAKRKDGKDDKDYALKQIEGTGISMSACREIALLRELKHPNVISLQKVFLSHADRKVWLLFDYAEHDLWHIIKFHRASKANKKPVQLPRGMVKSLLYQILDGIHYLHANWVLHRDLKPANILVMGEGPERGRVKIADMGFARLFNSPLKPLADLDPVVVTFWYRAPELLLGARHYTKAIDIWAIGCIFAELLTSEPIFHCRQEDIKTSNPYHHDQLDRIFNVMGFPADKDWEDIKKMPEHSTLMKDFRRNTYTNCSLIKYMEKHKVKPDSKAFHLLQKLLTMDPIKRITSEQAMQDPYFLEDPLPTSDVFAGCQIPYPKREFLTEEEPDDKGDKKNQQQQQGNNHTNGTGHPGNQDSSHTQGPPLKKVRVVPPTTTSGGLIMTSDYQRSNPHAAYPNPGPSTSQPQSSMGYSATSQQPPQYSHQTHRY
# T1 sequence (P24863 whole entry partner): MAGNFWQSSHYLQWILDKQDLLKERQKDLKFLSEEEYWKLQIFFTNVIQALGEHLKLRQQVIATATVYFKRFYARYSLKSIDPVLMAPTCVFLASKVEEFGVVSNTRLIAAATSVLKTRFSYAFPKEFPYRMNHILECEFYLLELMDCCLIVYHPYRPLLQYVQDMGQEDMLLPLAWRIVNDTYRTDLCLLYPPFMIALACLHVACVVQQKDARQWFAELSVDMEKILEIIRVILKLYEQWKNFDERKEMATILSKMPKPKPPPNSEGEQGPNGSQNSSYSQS
# T2 sequence (Q9BWU1 whole entry): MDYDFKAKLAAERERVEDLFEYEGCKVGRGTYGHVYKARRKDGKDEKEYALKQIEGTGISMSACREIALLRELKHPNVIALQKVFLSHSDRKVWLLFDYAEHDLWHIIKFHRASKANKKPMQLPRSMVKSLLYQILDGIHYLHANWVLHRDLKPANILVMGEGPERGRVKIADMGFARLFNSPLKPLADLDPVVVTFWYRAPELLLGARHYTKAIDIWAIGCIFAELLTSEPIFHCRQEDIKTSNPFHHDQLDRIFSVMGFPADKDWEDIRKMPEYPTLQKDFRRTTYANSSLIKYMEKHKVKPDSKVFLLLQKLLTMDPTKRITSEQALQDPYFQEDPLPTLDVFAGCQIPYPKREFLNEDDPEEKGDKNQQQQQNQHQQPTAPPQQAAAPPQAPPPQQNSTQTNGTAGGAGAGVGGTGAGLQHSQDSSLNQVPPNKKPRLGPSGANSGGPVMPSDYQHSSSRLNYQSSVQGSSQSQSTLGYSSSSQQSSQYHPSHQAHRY
# T2 sequence (P24863 whole entry partner): as the sequence (P24863 whole entry partner) above
Compound,inhibition at 1 µM (CDK8/CycC),inhibition at 1 µM (CDK19 (CDC2L6/CycC)),inhibition at 1 µM [1]
"Cn1cc(-c2ccncc2/C=C/C(=O)Nc2ccc(CC(F)(F)F)cc2)cn1 [Example 276, (2E)-3-(4-(1-methyl-1H-pyrazol-4-yl)pyridin-3-yl)-N-(4-(2,2,2-trifluoroethyl)phenyl)acrylamide]",99%,92%,60%
"Cn1cc(-c2ccncc2/C=C/C(=O)Nc2ccc3c(c2)OCO3)cn1 [Example 163, (2E)-N-(1,3-benzodioxol-5-yl)-3-(4-(1-methyl-1H-pyrazole-4-yl)pyridin-3-yl)acrylamide]",96%,94%,53%
"COCCOc1ccc(NC(=O)/C=C/c2cnccc2-c2cnn(C)c2)cc1 [Example 253, (2E)-N-(4-(2-methoxyethoxy)phenyl)-3-(4-(1-methyl-1H-pyrazol-4-yl)pyridin-3-yl)acrylamide]",98%,97%,62%
"O=C(/C=C/c1cnccc1-c1cnn2ccccc12)Nc1ccc(CN2CCOCC2)cc1 [Example 101, (2E)-N-(4-(morpholin-4-ylmethyl)phenyl)-3-(4-(pyrazolo[1,5-a]pyridin-3-yl)pyridin-3-yl)acrylamide]",98%,97%,55%
"Cc1nn(C)cc1-c1ccncc1/C=C/C(=O)Nc1ccc(CCc2nnco2)cc1 [Example 19, (2E)-3-(4-(1,3-dimethyl-1H-pyrazol-4-yl)pyridin-3-yl)-N-(4-(2-(1,3,4-oxadiazol-2-yl)ethyl)phenyl)acrylamide]",100%,98%,54%
"CCN1CCc2ccc(NC(=O)/C=C/c3cnccc3-c3cnn(C)c3)cc2C1 [Example 257, (2E)-N-(2-ethyl-1,2,3,4-tetrahydroisoquinolin-7-yl)-3-(4-(1-methyl-1H-pyrazol-4-yl)pyridin-3-yl)acrylamide]",99%,95%,56%
"CN(C)CCOc1ccc(NC(=O)/C=C/c2cnccc2-c2cnn(C)c2)cc1 [Example 252, (2E)-N-(4-(2-(dimethylamino)ethoxy)phenyl)-3-(4-(1-methyl-1H-pyrazol-4-yl)pyridin-3-yl)acrylamide]",99%,93%,60%
"O=C(/C=C/c1cnccc1-c1cnn(C2CC2)c1)Nc1ccc2c(c1)CN(CC(F)(F)C(F)(F)F)CC2 [Example 300, (2E)-3-(4-(1-cyclopropyl-1H-pyrazol-4-yl)pyridin-3-yl)-N-(2-(2,2,3,3,3-pentafluoropropyl)-1,2,3,4-tetrahydroisoquinolin-7-yl)acrylamide]",97%,94%,57%
"Cn1cc(-c2ccncc2/C=C/C(=O)Nc2ccc(N3CC(F)(F)C3)cc2)cn1 [Example 363, (2E)-N-(4-(3,3-difluoroazetidin-1-yl)phenyl)-3-(4-(1-methyl-1H-pyrazol-4-yl)pyridin-3-yl)acrylamide]",105%,99%,50%
"Cn1cc(-c2ccc(NC(=O)/C=C/c3cnccc3-c3cnn(C4CC4)c3)cc2)cn1 [Example 281, (2E)-3-(4-(1-cyclopropyl-1H-pyrazol-4-yl)pyridin-3-yl)-N-(4-(1-methyl-1H-pyrazol-4-yl)phenyl)acrylamide]",92%,97%,58%
"Cn1cc(-c2ccncc2/C=C/C(=O)Nc2ccc3c(c2)CCN(CC(F)(F)F)C3)cn1 [Example 277, (2E)-3-(4-(1-methyl-1H-pyrazol-4-yl)pyridin-3-yl)-N′-(2-(2,2,2-trifluoroethyl)-1,2,3,4-tetrahydroisoquinolin-6-yl)acrylamide]",98%,101%,65%
"O=C(/C=C/c1cnccc1-c1cnn(Cc2ccccc2)c1)Nc1ccc(CN2CCOCC2)cc1 [Example 93, (2E)-3-(4-(1-benzyl-1H-pyrazol-4-yl)pyridin-3-yl)-N-(4-(morpholin-4-ylmethyl)phenyl)acrylamide]",101%,101%,63%
"Cn1cc(-c2ccncc2/C=C/C(=O)Nc2ccc(CN3CCCC3CO)cc2)cn1 (stereo not drawn) [Example 76, (2E)-N-(4-((2-(hydroxymethyl)pyrrolidin-1-yl)methyl)phenyl)-3-(4-(1-methyl-1H-pyrazol-4-yl)pyridin-3-yl)acrylamide]",104%,93%,52%
"Cn1cnc2ccc(-c3ccncc3/C=C/C(=O)Nc3ccc4c(ccn4CC(F)(F)F)c3)cc21 [Example 298, (2E)-3-(4-(1-methyl-1H-benzimidazol-6-yl)pyridin-3-yl)-N-(1-(2,2,2-trifluoroethyl)-1H-indol-5-yl)acrylamide]",85%,84%,63%
"Cn1cc(-c2ccncc2/C=C/C(=O)Nc2ccc(CC(C)(C)O)cc2)cn1 [Example 123, (2E)-N-(4-(2-hydroxy-2-methylpropyl)phenyl)-3-(4-(1-methyl-1H-pyrazol-4-yl)pyridin-3-yl)acrylamide]",99%,101%,62%
"Cc1noc(C)c1-c1ccc(NC(=O)/C=C/c2cnccc2-c2cnn(C3CC3)c2)c(F)c1 [Example 311, (2E)-3-(4-(1-cyclopropyl-1H-pyrazol-4-yl)pyridin-3-yl)-N-(4-(3,5-dimethyl-1,2-oxazol-4-yl)-2-fluorophenyl)acrylamide]",103%,98%,58%

# Continued, in another order:
inhibition at 1 µM (CDK8/CycC),inhibition at 1 µM (CDK19 (CDC2L6/CycC)),Compound,inhibition at 1 µM [1]
98%,99%,"Cc1cc(NC(=O)/C=C/c2cnccc2-c2cnn(C3CC3)c2)ccc1CN1CCOCC1 [Example 142, (2E)-3-(4-(1-cyclopropyl-1H-pyrazol-4-yl)pyridin-3-yl)-N-(3-methyl-4-(morpholin-4-ylmethyl)phenyl)acryalmide]",62%
100%,100%,"Cn1cc(-c2c(F)cncc2/C=C/C(=O)Nc2ccc(CN3CCOCC3)cc2)cn1 [Example 238, (2E)-3-(5-fluoro-4-(1-methyl-1H-pyrazol-4-yl)pyridin-3-yl)-N-(4-(morpholin-4-ylmethyl)phenyl)acrylamide]",67%
99%,97%,"Cn1cc(-c2ccncc2/C=C/C(=O)Nc2ccc(CN3CCOCC3)cc2F)cn1 [Example 41, (2E)-N-(2-Fluoro-4-(morpholin-4-ylmethyl)phenyl)-3-(4-(1-methyl-1H-pyrazol-4-yl)pyridin-3-yl)acrylamide]",56%
98%,99%,"Cn1cc(-c2c(F)cncc2/C=C/C(=O)Nc2ccc(CN3CCOCC3)cc2F)cn1 [Example 260, (2E)-3-(5-Fluoro-4-(1-methyl-1H-pyrazol-4-yl)pyridin-3-yl)-N-(2-fluoro-4-(morpholin-4-ylmethyl)phenyl)acrylamide]",53%
99%,98%,"COc1ncc(-c2ccncc2/C=C/C(=O)Nc2ccc(CN3CCOCC3)cc2)s1 [Example 221, (2E)-3-(4-(2-Methoxy-1,3-thiazol-5-yl)pyridin-3-yl)-N-(4-(morpholin-4-ylmethyl)phenyl)acrylamide]",63%
96%,100%,"CCn1cc(-c2ccncc2/C=C/C(=O)Nc2ccc(CN3CCOCC3)cc2)cn1 [Example 92, (2E)-3-(4-(1-Ethyl-1H-pyrazol-4-yl)pyridin-3-yl)-N-(4-(morpholin-4-ylmethyl)phenyl)acrylamide]",63%
100%,98%,"Cn1cc(-c2ccncc2/C=C/C(=O)Nc2ccc(CN3CCOCC3)cc2)cn1 [Example 31, (2E)-3-(4-(1-Methyl-1H-pyrazol-4-yl)pyridin-3-yl)-N-(4-(morpholin-4-ylmethyl)phenyl)acrylamide]",60%
99%,97%,"Cn1cc(-c2ccncc2/C=C/C(=O)Nc2ccc(CN3CCOCC3)c(F)c2)cn1 [Example 249, (2E)-N-(3-fluoro-4-(morpholin-4-ylmethyl)phenyl)-3-(4-(1-methyl-1H-pyrazol-4-yl)pyridin-3-yl)acrylamide]",62%
